Tests used:
[1] = tested on: histamine-induced increase in mouse vascular permeability; assay: Histamine-induced increase in auricular vascular permeability, EB exudation test; format: in vivo, ICR mice; conditions: for Ear blue staining compared with histamine model group: observed within 30 min after histamine; for Amount of EB exudation: histamine 5 mg/kg tail vein on 4th day, both ears, n = 10, mean ± SD; for EB exudation reduction rate: histamine 5 mg/kg, vs histamine group
Procedure: ICR mice are divided into 6 groups, including a negative control group (control): physiological saline is administered by gavage for 3 days, and on the 4th day, the physiological saline is administered by tail vein injection; a histamine model group (histamine): the physiological saline is administered by the gavage for 3 days, and 5 mg/kg of the histamine is administered by the tail vein injection on the 4th day; an AA-IVa low-dose treatment group (histamine+AA-IVa/L): 5 mg/kg of AA-IVa is administered by the gavage for 3 days, and 5 mg/kg of the histamine is administered by the tail vein injection on the 4th day; and an AA-IVa high-dose treatment group (histamine+AA-IVa/H): 10 mg/kg of AA-IVa is administered by the gavage for 3 days, and 5 mg/kg of the histamine is administered by the tail vein injection on the 4th day.
AA-Iva: 0.5 wt % CMC-Na is used for preparation, and the concentration is 0.5 mg/ml and 0.25 mg/ml respectively. Histamine: 0.5 mg/ml of histamine solution is prepared with the physiological saline.
4.3 Modeling Method • (1) Principle: the histamine may cause an increase in permeability of capillary and venule walls, and plasma leaks into tissues, leading to local tissue edema. EB is a commonly used indicator for detecting the vascular permeability. After intravenous injection of mixed solution of histamine and EB into the mice, the increase in the vascular permeability caused by the histamine may be observed in a mouse auricle (the auricle is stained blue). • (2) Method for establishing model of increased auricular vascular permeability induced by histamine: after the histamine (0.5 mg/ml) is mixed with 0.8% EB solution at a ratio of 1:1 (volume), the tail vein injection is performed at 20 ml/kg of a volume according to the weight of each mouse. The auricular blue staining condition of the mouse is observed within 30 min after the histamine is administered, and a picture of the auricular blue staining is taken. • (3) Auricular vascular permeability test (EB exudation test): after the above auricular blue staining is observed and photographed, both ears are cut, and cut into pieces. After being soaked in 2 ml of formamide at a room temperature for 48 h, it is filtered with a 200-mesh stainless steel sieve. A filtrate is taken, and the absorbance (A) is measured at 610 nm. According to an EB standard curve, the amount (μg) of EB dye exudation is calculated.
EB exudation reduction rate (%)=(average value of EB exudation in histamine group−average value of EB exudation in administration group)/average value of EB exudation in histamine group×100%.
Statistical analysis is performed by using SPSS 20.0 software. The variance analysis is performed on the amount of EB exudation from the auricle tissue by using an ANOVA program. Data is expressed as mean±standard deviation (x±S), the histamine model group is compared with the control group, and each administration group is compared with the histamine model group, P<0.05 is considered as a significant difference.
ICR mice are divided into 4 groups, including a negative control group (control) (1): physiological saline is administered by gavage for 3 days, and on the 4th day, the physiological saline is administered by tail vein injection; a histamine model group (histamine) (2): the physiological saline is administered by the gavage for 3 days, and on the 4th day, 5 mg/kg of the histamine is administered by the tail vein injection; an AA-I treatment group (histamine+AA-I) (3): 10 mg/kg of AA-I is administered by the gavage for 3 days, and on the 4th day, 5 mg/kg of the histamine is administered by the tail vein injection; and an AA-II treatment group (histamine+AA-II) (4): 10 mg/kg of AA-II is administered by the gavage for 3 days, and on the 4th day, 5 mg/kg of the histamine is administered by the tail vein injection.
Preparation of AA-I and AA-II: 0.5 wt % CMC-Na is used to prepare AA-I and AA-II into 0.5 mg/ml respectively.

[2] = tested on: histamine-induced pneumonia (lung tissue inflammatory exudation); assay: Histamine-induced pneumonia, pathological examination of lung tissue; format: in vivo, ICR mice; conditions: histamine 5 mg/kg, HE pathology
From the text: 1. Experimental Method • (1) Model establishment, animal grouping and administration are the same as Embodiment 1. • (2) Pathological examination of lung tissue: after the mouse is euthanized due to vertebral detachment, it is dissected, and the lung tissue is taken out. The lung tissue is fixed with 10% neutral formalin for standby. After being fully fixed with formaldehyde, the submitted tissue is dehydrated step by step with ethanol, transparent with xylene, embedded with paraffin, and prepared conventionally into 3 μm of a paraffin section. HE, Masson, and PAS staining are used respectively, and the tissue inflammation exudation conditions are examined under an optical microscope (DP71 type, OLYMPUS, magnified by 400 times).
1. Experimental Method • (1) Model establishment, animal grouping and administration are the same as Contrast example 1. • (2) Pathological examination of lung tissue: same as Embodiment 2.

[3] = tested on: ICR mice; assay: Toxicity test, single gavage, death within 14 days and renal pathology; format: in vivo; conditions: 40 mg/kg once by gavage; for Death rate / Number of dead animals: 10 animals, within 14 days; for Renal pathological examination: survived animals after 14 days
Procedure: SPF-grade ICR mice are used, 18-22 g, with half male and half female. The animals are sourced from Beijing Vital River Laboratory Animal Technology Co., Ltd. After 1 day of adaptive feeding, the test substance is administered.
The mice are randomly divided into 4 groups: a control group (physiological saline is administered once by gavage) (1); an AA-I group (40 mg/kg of AA-I is administered once by the gavage) (2); an AA-II group (40 mg/kg of AA-II is administered once by the gavage) (3); and an AA-Iva group (40 mg/kg of AA-IVa is administered once by the gavage) (4).
Before the animals are administered by the gavage, it is fasted for 12 h without water deprivation. After being administered by the gavage, the animal death conditions within 14 days are recorded after the gavage administration. Survived animals are dissected, and kidneys are taken for the pathological examination.

[4] = drug 10 mg/kg by gavage for 3 days
[5] = drug 5 mg/kg by gavage for 3 days

`COc1cccc2c1cc([N+](=O)[O-])c1c(C(=O)O)cc3c(c12)OCO3` [AA-I, Aristolochic Acid I] was tested, and the “Amount of EB exudation compared to histamine model group (in words)” value ([1]; 10 mg/kg by gavage for 3 days) was “no significant difference”, the “Ear blue staining compared with histamine model group” value ([1]; 10 mg/kg by gavage for 3 days) was “no significant difference” and the “Amount of EB exudation” value [1, 4] was 1.01 ± 0.28 µg. For the same compound, the “EB exudation reduction rate” value [1, 4] was 14.4%, the “Thickening of alveolar septa and exudation of inflammatory cells in lung tissue compared to model group” value (from here on “Thickening … compared to model group”) ([2]; 10 mg/kg by gavage for 3 days) was “no significant difference compared to the histamine model group” and the Death rate [3] was 70%. For the same compound, the “Number of dead animals” value [3] was 7 and the Renal pathological examination [3] was “diffuse tubular necrosis”.
In the case of `O=C(O)c1cc2c(c3c1c([N+](=O)[O-])cc1ccccc13)OCO2` [AA-II, Aristolochic Acid II], the “Amount of EB exudation compared to histamine model group (in words)” value ([1]; 10 mg/kg by gavage for 3 days) is reported as “no significant difference”, the “Ear blue staining compared with histamine model group” value ([1]; 10 mg/kg by gavage for 3 days) is reported as “no significant difference” and the “Amount of EB exudation” value [1, 4] is reported as 1.09 ± 0.34 µg. For the same compound, the “EB exudation reduction rate” value [1, 4] was 7.6%, the “Thickening … compared to model group” value ([2]; 10 mg/kg by gavage for 3 days) was “no significant difference compared to the histamine model group” and the Death rate [3] was 10%. The “Number of dead animals” value [3] was 1 and the Renal pathological examination [3] was “patchy tubular necrosis and tubular swelling”.
In the case of `COc1cc(O)cc2c1cc([N+](=O)[O-])c1c(C(=O)O)cc3c(c12)OCO3` [AA-IVa, aristolochic acid IVa], the “Amount of EB exudation compared to histamine model group (in words)” value ([1]; different doses (5 and 10 mg/kg by gavage for 3 days), P<0.001) is reported as “significantly decreased”, the “Ear blue staining compared with histamine model group” value ([1]; different doses (5 and 10 mg/kg by gavage for 3 days)) is reported as “significantly reduced” and the “Amount of EB exudation” value [1, 5] is reported as 0.93 ± 0.20 µg. For the same compound, the “EB exudation reduction rate” value [1, 5] was 36.7%, the “Amount of EB exudation” value [1, 4] was 0.82 ± 0.25 µg and the “EB exudation reduction rate” value [1, 4] was 44.2%. For the same compound, the “Thickening … compared to model group” value ([2]; 5 mg/kg by gavage for 3 days) was “significant reduction compared to the model group”, the “Thickening … compared to model group” value ([2]; 10 mg/kg by gavage for 3 days) was “significant reduction compared to the model group” and the Renal pathological examination [3] was “no toxic damage”.

From US20230372288A1, “Application of Aristolochic Acid IVa in Preparation of Antihistamine or Drug for Treating Pneumonia” (priority 2022, published 2023)
